8 molecules from paper PMC5697638, “Identification of a Potent Phosphoinositide 3‐Kinase Pan Inhibitor Displaying a Strategic Carboxylic Acid Group and Development of Its Prodrugs” (Chemmedchem, 2017) can be followed below.

Bounds are passed on as bounds.

Format in all cases: biochemical
For experiment [1], the target named is T1, human PI3Kα (PIK3CA/PIK3R1) (Homo sapiens, UniProt P42336).
T1 construct: purchased ProQinase, Germany 1161‐1165‐1
The experiment can be described thus: lipid kinase assay (ADP-Glo), PI3Kα. The conditions noted are these: for inhibition at 1 µM: determined at 1 μM, at least triplicate, read-out: Inhibitory activity, PI3K isoform α; for IC50: Table 2, mean of at least three determinations, 95 % confidence intervals, read-out: IC50 PI3Kα. On the procedure: (§1) In vitro selection, lipid kinase assay: To determine the inhibitory activity of the new molecular entities on PI3K enzyme, a lipid kinase assay was performed: recombinant proteins (30 ng), human PI3Kα (PIK3CA/PIK3R1, #1161‐1165‐1 ProQinase–Germany), hPI3Kβ (PIK3CB wt/PIK3R1, #1168‐1165‐1 ProQinase, Germany), hPI3Kγ (PIK3CG, #1163‐0000‐1 ProQinase, Germany), hPI3Kδ (PIK3CD/PIK3R1, #1162–1165‐1 ProQinase, Germany), hPI3K‐C2α (PIK3C2A, #14‐906 Merck Millipore_Merck KGaA, Germany), hPI3K‐C2β (PIK3C2B, #14‐907 Merck Millipore_Merck KGaA, Germany), hPI3K‐c2γ (PIK3C2G, #1207‐0000‐1 ProQinase, Germany), and hVps34 (PIK3C3, #1160‐0000‐1 ProQinase, Germany), were incubated in kinase buffer {12.5 μL; 20 mM Tris‐HCl pH 7.5, 10 mM MgCl2, 10 μM ATP, 0.05 mg mL^−1 BSA, 0.5 mM EDTA, 5 mM HEPES pH 7.5, for PI3Kα,PI3Kβ, PI3Kγ, PI3Kδ, PI3KC‐2α, and PI3KC‐2γ; 15 mM MnCl2, 5 mM EGTA, 100 μM ATP, 50 mM HEPES pH 7.5, 100 mM NaCl, and 0.03 % CHAPS for PI3K‐C2β and VPS34 {BSA=bovine serum albumin; EDTA=ethylenediaminetetraacetic acid; HEPES=4‐(2‐hydroxyethyl)‐1‐piperazineethanesulfonic acid; EGTA=ethylene glycol‐bis(2‐aminoethylether)‐N,N,N′,N′‐tetraacetic acid; CHAPS=3‐[(3‐cholamidopropyl)dimethylammonio]‐1‐propanesulfonate}. In the reaction, the ATP concentration used for different PI3Ks was defined on the basis of the Michaelis–Menten kinetics of each enzyme, provided by the supplier. Reaction was performed in presence of 0.5 mg mL^−1 lipid micelles (1:1 phosphatidylinositol/phosphatidylserine) and in the absence (DMSO alone) or presence of increasing concentrations of each compound (from 0.1 nM to 30 μM). The mixture was kept at room temperature (RT) for 30 min for PI3Kα, PI3Kβ, PI3Kγ, PI3Kδ, PI3KC‐2α, and PI3KC‐2γ and for 1 h for PI3K‐C2β and PI3K‐C3. The amount of ADP produced in the reaction was measured by using the ADP‐Glo Kinase Assay kit from Promega (#V9102) and a luminescence reader (Glomax multi detection system, Promega, model number 9301‐010).
(§2) The residual PI3K lipid kinase activity in the presence of each molecule at different concentrations was related to the control, intended as the recombinant protein in the presence of DMSO alone and was expressed as a percentage. To derive the IC50 value, all data (% of lipid kinase activity) were plotted on a dose–response curve (Graph Pad software), and the IC50 was calculated by using nonlinear regression fit (equation [log agonist] versus response).
(In general: In ADP-Glo the light output rises with the ADP produced.)

The target of another experiment is T2, hPI3Kδ (PIK3CD/PIK3R1) (Homo sapiens, UniProt O00329).
T2 construct: purchased ProQinase, Germany 1162–1165‐1
The experiment can be described thus: lipid kinase assay (ADP-Glo), PI3Kδ. Conditions: for inhibition at 1 µM: determined at 1 μM, at least triplicate, read-out: Inhibitory activity, PI3K isoform δ; for IC50: Table 2, mean of at least three determinations, 95 % confidence intervals. On the procedure: as §1, §2

The next experiment concerns the target T3, hPI3Kγ (PIK3CG) (Homo sapiens, UniProt P48736).
T3 construct: purchased ProQinase, Germany 1163‐0000‐1
The experiment can be described thus: lipid kinase assay (ADP-Glo), PI3Kγ. Conditions: for inhibition at 1 µM: determined at 1 μM, at least triplicate, read-out: Inhibitory activity, PI3K isoform γ; for IC50: Table 2, mean of at least three determinations, 95 % confidence intervals. The method, then:
as §1, §2

The target in experiment [2] is T4, hPI3Kβ (PIK3CB wt/PIK3R1) (Homo sapiens, UniProt P42338).
T4 construct: purchased ProQinase, Germany 1168‐1165‐1
The experiment can be described thus: lipid kinase assay (ADP-Glo), PI3Kβ. Conditions: for inhibition at 1 µM: determined at 1 μM, at least triplicate, read-out: Inhibitory activity, PI3K isoform β; for IC50: Table 2, mean of at least three determinations, 95 % confidence intervals. On the procedure:
as §1, §2

T4 sequence (P42338 whole entry): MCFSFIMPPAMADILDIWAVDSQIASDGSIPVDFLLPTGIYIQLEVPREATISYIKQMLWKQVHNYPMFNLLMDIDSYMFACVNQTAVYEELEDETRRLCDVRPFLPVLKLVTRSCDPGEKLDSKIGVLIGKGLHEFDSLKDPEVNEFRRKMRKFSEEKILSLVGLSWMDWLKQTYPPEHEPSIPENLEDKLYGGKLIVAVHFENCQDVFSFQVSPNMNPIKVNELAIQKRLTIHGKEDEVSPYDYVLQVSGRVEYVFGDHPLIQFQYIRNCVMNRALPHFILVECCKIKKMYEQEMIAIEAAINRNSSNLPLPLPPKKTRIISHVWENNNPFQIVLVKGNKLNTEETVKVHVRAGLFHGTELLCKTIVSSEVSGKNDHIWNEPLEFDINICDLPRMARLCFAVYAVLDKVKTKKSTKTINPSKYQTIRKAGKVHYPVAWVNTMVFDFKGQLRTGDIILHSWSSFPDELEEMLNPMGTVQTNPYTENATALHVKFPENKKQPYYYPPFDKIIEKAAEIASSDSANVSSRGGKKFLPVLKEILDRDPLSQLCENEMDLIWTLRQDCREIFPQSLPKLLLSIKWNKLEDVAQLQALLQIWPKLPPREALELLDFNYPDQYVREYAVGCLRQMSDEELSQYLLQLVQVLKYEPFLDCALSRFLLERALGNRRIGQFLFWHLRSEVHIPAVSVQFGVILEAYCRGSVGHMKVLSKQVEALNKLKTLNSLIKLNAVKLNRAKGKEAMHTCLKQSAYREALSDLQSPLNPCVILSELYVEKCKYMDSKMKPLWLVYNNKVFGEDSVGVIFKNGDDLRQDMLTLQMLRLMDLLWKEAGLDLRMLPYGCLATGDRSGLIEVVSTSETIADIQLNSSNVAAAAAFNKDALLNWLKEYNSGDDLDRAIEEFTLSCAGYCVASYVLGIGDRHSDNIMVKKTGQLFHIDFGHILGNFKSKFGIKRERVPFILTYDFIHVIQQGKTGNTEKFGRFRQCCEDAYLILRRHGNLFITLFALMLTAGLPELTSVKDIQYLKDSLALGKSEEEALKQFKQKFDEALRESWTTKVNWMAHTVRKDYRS
T4 sequence (P27986 whole entry partner): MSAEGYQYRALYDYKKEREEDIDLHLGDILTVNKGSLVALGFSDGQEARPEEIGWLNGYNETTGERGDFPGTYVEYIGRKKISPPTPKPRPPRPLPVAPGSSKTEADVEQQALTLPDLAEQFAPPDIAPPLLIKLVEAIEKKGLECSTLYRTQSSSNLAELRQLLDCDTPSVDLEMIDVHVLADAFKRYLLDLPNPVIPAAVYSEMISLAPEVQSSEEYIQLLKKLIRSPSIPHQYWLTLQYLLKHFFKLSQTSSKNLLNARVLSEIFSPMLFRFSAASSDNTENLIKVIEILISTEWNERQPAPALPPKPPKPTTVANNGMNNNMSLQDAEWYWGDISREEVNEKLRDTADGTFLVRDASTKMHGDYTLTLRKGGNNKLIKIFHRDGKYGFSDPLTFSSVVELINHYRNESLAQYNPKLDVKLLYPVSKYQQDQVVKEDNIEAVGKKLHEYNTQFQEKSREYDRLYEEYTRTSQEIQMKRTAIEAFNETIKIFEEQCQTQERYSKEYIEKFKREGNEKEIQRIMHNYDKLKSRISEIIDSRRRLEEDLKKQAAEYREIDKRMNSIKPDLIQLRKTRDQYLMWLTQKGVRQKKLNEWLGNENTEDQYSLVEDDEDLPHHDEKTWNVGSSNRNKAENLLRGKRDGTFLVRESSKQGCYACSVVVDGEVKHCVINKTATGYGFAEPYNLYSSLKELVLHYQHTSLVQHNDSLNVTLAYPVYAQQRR
T2 sequence (O00329 whole entry): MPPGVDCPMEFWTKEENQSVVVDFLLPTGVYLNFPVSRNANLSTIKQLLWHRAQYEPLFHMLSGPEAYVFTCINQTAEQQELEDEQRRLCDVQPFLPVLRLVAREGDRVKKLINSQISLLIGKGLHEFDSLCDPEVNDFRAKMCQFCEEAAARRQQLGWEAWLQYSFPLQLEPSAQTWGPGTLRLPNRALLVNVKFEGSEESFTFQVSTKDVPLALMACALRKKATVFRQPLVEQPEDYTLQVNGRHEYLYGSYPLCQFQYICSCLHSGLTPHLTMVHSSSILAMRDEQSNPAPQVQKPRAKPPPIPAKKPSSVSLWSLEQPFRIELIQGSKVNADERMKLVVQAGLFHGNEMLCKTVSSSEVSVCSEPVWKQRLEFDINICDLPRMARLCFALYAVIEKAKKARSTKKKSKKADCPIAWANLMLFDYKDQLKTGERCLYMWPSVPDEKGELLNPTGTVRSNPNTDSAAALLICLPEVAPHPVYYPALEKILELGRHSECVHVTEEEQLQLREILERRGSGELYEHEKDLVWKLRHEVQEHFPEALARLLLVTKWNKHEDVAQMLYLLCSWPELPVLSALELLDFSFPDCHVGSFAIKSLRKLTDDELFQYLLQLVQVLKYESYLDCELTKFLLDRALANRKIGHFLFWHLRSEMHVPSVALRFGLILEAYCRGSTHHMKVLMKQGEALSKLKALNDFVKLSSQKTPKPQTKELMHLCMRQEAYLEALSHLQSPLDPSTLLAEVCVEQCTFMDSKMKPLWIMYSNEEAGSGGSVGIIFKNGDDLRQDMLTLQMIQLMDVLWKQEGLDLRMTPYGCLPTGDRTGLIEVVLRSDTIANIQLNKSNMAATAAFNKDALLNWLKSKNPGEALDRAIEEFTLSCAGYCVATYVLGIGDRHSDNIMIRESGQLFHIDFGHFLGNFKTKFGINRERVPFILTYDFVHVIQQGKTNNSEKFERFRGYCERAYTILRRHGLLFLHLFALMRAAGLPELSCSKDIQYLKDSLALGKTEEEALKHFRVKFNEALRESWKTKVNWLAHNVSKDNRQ
T2 sequence (P27986 whole entry partner): as the sequence (P27986 whole entry partner) above
T3 sequence (P48736 whole entry): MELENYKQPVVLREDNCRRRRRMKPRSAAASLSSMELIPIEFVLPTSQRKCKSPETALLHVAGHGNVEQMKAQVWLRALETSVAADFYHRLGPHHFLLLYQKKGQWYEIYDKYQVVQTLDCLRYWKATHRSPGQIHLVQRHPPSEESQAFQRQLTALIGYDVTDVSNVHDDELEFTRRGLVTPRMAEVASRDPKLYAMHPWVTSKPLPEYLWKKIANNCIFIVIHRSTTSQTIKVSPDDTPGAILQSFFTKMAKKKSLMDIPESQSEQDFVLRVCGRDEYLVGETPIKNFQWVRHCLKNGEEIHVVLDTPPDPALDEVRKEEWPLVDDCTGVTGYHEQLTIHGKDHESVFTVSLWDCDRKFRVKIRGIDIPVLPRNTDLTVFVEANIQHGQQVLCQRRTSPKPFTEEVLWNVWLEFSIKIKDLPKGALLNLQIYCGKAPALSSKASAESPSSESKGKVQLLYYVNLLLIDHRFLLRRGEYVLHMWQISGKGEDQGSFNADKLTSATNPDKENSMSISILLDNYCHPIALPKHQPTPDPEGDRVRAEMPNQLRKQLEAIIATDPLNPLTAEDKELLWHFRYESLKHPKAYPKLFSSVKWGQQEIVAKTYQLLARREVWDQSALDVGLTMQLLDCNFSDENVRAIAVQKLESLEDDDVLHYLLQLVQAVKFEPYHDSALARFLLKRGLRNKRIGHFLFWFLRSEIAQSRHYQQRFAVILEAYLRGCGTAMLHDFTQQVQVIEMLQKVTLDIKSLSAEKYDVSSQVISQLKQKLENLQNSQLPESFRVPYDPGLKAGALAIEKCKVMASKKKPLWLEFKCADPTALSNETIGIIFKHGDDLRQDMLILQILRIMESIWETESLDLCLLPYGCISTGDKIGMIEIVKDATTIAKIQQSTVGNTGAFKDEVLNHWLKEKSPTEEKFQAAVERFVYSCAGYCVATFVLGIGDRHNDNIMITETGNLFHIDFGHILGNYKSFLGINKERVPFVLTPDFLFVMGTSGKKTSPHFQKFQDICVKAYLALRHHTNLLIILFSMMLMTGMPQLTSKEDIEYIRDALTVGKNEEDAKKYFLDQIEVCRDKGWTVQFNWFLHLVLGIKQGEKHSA
T1 sequence (P42336 whole entry): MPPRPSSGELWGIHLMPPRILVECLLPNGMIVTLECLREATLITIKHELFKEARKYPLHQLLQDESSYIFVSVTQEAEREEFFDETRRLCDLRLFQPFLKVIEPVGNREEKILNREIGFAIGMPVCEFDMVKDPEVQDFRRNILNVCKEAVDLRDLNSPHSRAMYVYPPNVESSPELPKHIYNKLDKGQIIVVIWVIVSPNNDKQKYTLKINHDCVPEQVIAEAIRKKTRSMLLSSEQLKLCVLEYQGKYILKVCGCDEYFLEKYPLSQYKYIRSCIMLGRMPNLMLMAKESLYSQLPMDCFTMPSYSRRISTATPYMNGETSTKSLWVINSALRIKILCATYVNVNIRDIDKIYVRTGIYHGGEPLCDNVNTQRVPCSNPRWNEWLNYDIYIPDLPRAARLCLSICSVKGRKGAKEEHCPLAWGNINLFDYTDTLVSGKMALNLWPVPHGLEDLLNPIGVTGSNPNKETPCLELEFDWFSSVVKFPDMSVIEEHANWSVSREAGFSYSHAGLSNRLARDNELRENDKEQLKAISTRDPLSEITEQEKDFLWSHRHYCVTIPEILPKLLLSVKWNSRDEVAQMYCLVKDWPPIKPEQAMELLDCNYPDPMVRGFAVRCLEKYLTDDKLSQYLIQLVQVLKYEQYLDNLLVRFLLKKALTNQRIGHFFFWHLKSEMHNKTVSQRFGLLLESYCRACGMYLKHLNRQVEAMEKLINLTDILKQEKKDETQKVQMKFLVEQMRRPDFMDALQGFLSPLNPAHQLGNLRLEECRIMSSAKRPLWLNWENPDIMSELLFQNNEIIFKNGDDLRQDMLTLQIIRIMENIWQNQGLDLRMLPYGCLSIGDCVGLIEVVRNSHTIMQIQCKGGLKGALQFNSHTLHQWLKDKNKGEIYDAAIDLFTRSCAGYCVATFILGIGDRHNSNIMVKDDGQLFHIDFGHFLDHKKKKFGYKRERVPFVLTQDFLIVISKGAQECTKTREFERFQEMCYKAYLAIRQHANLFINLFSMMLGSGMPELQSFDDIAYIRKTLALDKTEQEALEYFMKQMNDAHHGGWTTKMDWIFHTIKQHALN
T1 sequence (P27986 whole entry partner): as the sequence (P27986 whole entry partner) above

For the molecule `COc1ccc(NC(C)=O)cc1-n1cc(-c2cccc3c(=O)cc(N4CCOCC4)[nH]c23)nn1` [Compound 38, N ‐{4‐Methoxy‐3‐[4‐(2‐morpholino‐4‐oxo‐1,4‐dihydroquinolin‐8‐yl)‐1H‐1,2,3‐triazol‐1‐yl]phenyl}acetamide], the inhibition at 1 µM (in experiment [1]; at hPI3Kδ (PIK3CD/PIK3R1); at hPI3Kγ (PIK3CG); in experiment [2]) was less than 50% throughout.

Take `COc1ccc(-n2cc(-c3cccc4c(=O)cc(N5CCOCC5)[nH]c34)nn2)cc1OC` [Compound 43, 8‐[1‐(3,4‐Dimethoxyphenyl)‐1H‐1,2,3‐triazol‐4‐yl]‐2‐morpholinoquinolin‐4(1H)‐one]: the inhibition at 1 µM (in experiment [1]; on hPI3Kδ (PIK3CD/PIK3R1); at hPI3Kγ (PIK3CG); in experiment [2]) was less than 50% throughout.

`NS(=O)(=O)c1ccc(-n2cc(-c3cccc4c(=O)cc(N5CCOCC5)[nH]c34)nn2)cc1` [Compound 50, 4‐[4‐(2‐Morpholino‐4‐oxo‐1,4‐dihydroquinolin‐8‐yl)‐1H‐1,2,3‐triazol‐1‐yl]benzenesulfonamide]: the inhibition at 1 µM (in experiment [1]; at hPI3Kδ (PIK3CD/PIK3R1); on hPI3Kγ (PIK3CG); in experiment [2]) was less than 50% in each case.

On to `O=C(O)c1ccc(-n2cc(-c3cccc4c(=O)cc(N5CCOCC5)[nH]c34)nn2)cc1` [Compound 45, 4‐[4‐(2‐Morpholino‐4‐oxo‐1,4‐dihydroquinolin‐8‐yl)‐1H‐1,2,3‐triazol‐1‐yl]benzoic acid], for which the IC50 was determined as 320 ± 200 nM in experiment [1], 170 ± 100 nM against hPI3Kδ (PIK3CD/PIK3R1), 300 ± 200 nM against hPI3Kγ (PIK3CG) and 300 ± 200 nM in experiment [2]. Also, the inhibition at 1 µM (in experiment [1]; on hPI3Kδ (PIK3CD/PIK3R1); at hPI3Kγ (PIK3CG); in experiment [2]) was greater than 50% throughout.

As for `N#CCc1ccc(-n2cc(-c3cccc4c(=O)cc(N5CCOCC5)[nH]c34)nn2)cc1` [Compound 33, 2‐{4‐[4‐(2‐Morpholino‐4‐oxo‐1,4‐dihydroquinolin‐8‐yl)‐1H‐1,2,3‐triazol‐1‐yl]phenyl} acetonitrile], the inhibition at 1 µM (in experiment [1]; on hPI3Kδ (PIK3CD/PIK3R1); on hPI3Kγ (PIK3CG); in experiment [2]) was less than 50% each time.

In the case of `Cc1cc(F)ccc1Oc1cccc2c(=O)cc(N3CCOCC3)[nH]c12` [TGX155, reference compound], the IC50 is greater than 10000 nM in experiment [1], 410 ± 130 nM against hPI3Kδ (PIK3CD/PIK3R1), 9400 ± 1200 nM at hPI3Kγ (PIK3CG) and 96 ± 7 nM in experiment [2].

With `O=c1cc(N2CCOCC2)[nH]c2c(-c3cn(-c4ccccc4CO)nn3)cccc12` [Compound 41, 8‐{1‐[2‐(Hydroxymethyl)phenyl]‐1H‐1,2,3‐triazol‐4‐yl}‐2‐morpholinoquinolin‐4(1H)‐one], the inhibition at 1 µM (in experiment [1]; on hPI3Kδ (PIK3CD/PIK3R1); on hPI3Kγ (PIK3CG); in experiment [2]) was less than 50% throughout.

For the molecule `O=c1cc(N2CCOCC2)[nH]c2c(-c3cn(-c4ccc5c(c4)OCO5)nn3)cccc12` [Compound 46, 8‐[1‐(Benzo[d][1,3]dioxol‐5‐yl)‐1H‐1,2,3‐triazol‐4‐yl]‐2‐morpholinoquinolin‐4(1H)‐one], the inhibition at 1 µM (in experiment [1]; on hPI3Kδ (PIK3CD/PIK3R1); on hPI3Kγ (PIK3CG); in experiment [2]) was less than 50% throughout.

The term IC50 denotes the midpoint of a concentration-inhibition curve.
